Measured values published in patent publication US7932281B2, “Amine-based compound and use thereof” (Kureha Corporation, priority 2004, dated 2011).

Legend:
SD mice = assay: Acute toxicity, single transvenous administration (Test Example 3); assay type: in vivo; conditions: 6-week-old male SD mice, 2.5 mg/kg transvenously once in physiological saline
Procedure: The aforementioned compound was examined for acute toxicity. Specifically, 6-week-old SD mice (male) were divided into several groups (2 to 3 mice in each group). Subsequently, each of the compounds of Examples was dissolved in a physiological saline solution, and the solution was transvenously administered to the mice (dose: 2.5 mg/kg) once. Then, the number of dead mice was counted.

CXCR4 = target: T1, CXCR4 (Homo sapiens, UniProt P61073); assay: Inhibition of 125I-SDF-1α binding to receptors CXCR4 on MT-4 cells (Test Example 2); conditions: binding-inhibition % at 0.01 μM, 2 hours under ice-cooling, read-out: Inhibition rate (%)
T1 construct: endogenous in cells; host or cells: MT-4 cells
Procedure: MT-4 cells (5×10^6/0.2 ml/well) were cultured on a 24-well microtiter plate. After the cells were incubated for 24 hours at 37° C. in a carbon dioxide gas incubator, a culture medium was replaced with a buffer solution (0.1% BSA-containing RPMI-1640). Together with a ligand ^125I-SDF-1α (specific activity: 2,200 Ci/mmol; available from Daiichi Pure Chemicals Co., Ltd. (Tokyo)), test materials with various concentrations were subjected to a binding reaction for 2 hours under ice-cooling. […] Then, a rate of inhibition of the binding between radioactive ligands and receptors CXCR4 by a test material was calculated (a binding-inhibition % at 0.01 μM).

[1] = tested on: HIV-1IIIB infected MT-4 cells; assay: Anti-HIV activity, HIV-1IIIB infected MT-4 cells, MTT method (Test Example 1); assay type: cell-based; conditions: Human immunodeficiency virus 1, MT4, 120 h, concentration required for inhibition of cell disorder due to HIV infection by 50%, MOI 0.01, 5 days
Procedure: Immediately after infection, HIV-1IIIB infected MT-4 cells (3.0×10^4/well, MOI (Multiplicity of infection): 0.01) were added to a 96-well microtiter plate together with the test compounds having different concentrations. The cells were cultured in a carbon dioxide incubator at 37° C. for 5 days, and the number of living cells was measured in accordance with the MTT (tetrazolium) method ([…], et al., J. of Virol. Method, 20, 309-321 […]). The antiviral activity is represented by the concentration required for inhibition of cell disorder due to HIV infection by 50% (EC50: 50% Effective Concentration) (μM), and the results are shown in Table 2.

T1 sequence (P61073 whole entry): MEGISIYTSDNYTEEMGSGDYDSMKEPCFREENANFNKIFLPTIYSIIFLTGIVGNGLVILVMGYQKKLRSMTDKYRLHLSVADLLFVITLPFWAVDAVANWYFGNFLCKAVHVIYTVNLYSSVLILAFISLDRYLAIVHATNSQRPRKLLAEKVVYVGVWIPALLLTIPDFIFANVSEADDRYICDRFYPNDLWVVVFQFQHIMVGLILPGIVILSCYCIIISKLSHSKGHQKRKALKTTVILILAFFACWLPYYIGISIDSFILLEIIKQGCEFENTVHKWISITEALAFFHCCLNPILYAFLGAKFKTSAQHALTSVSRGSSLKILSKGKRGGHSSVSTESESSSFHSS

| SMILES | Dead mice/test mice (SD mice) | inhibition at 0.01 µM (CXCR4) [%] | EC50 [1] [nM] |
| --- | --- | --- | --- |
| CCCN(CCC)CCCCN(Cc1ccc(CN(Cc2ncc[nH]2)Cc2nccn2C)cc1)c1ccccc1 [Compound No. 24, N-(4-{[(1H-imidazol-2-ylmethyl)-(1-methyl-1H-imidazol-2-ylmethyl)-amino]-methyl}-benzyl)-N-phenyl-N′,N′-dipropyl-butane-1,4-diamine] | 0/3 | 50.1 | 95 |
| CCCN(CCC)CCCCN(C)C(=O)Nc1ccc(CN(Cc2ncc[nH]2)Cc2nccn2C)cc1 [Compound No. 26, 1-(4-dipropylamino-butyl)-3-(4-{[(1H-imidazol-2-ylmethyl)-(1-methyl-1H-imidazol-2-ylmethyl)-amino]-methyl}-phenyl)-1-methyl-urea] | 0/3 | 57.3 | 73 |
| CCCN(CCC)CCCCN(C)C(=O)N(C)c1ccc(CN(Cc2ncc[nH]2)Cc2nccn2C)cc1 [Compound No. 27, 1-(4-dipropylamino-butyl)-3-(4-{[(1H-imidazol-2-ylmethyl)-(1-methyl-1H-imidazol-2-ylmethyl)-amino]-methyl}-phenyl)-1,3-dimethyl-urea] | 0/3 | 43.4 | 230 |
| CCCN(CCC)Cc1ccc(-c2nc3ccc(CN(Cc4ncc[nH]4)Cc4nccn4C)cc3n2C)cc1 [Compound No. 29, [4-(6-{[(1H-imidazol-2-ylmethyl)-(1-methyl-1H-imidazol-2-ylmethyl)-amino]-methyl}-1-methyl-1H-benzimidazol-2-yl)-benzyl]-dipropyl-amine] | 0/3 | 71.2 | 61 |
| CCCN(CCC)CCCCNC(=O)c1cn2cc(CN(Cc3ncc[nH]3)Cc3nccn3C)ccc2n1 [Compound No. 30] | 0/3 | 46 | 92 |
| CCCN(CCC)CCCCN(Cc1ccc(CN(Cc2ncc[nH]2)Cc2nccn2C)cc1)CC(F)(F)F [Compound No. 31, N-(4-{[(1H-imidazol-2-ylmethyl)-(1-methyl-1H-imidazol-2-ylmethyl)-amino]-methyl}-benzyl)-N′,N′-dipropyl-N-(2,2,2-trifluoro-ethyl)-butane-1,4-diamine] | 0/3 | 47.3 | 74 |
| CCCN(CCC)CCCCN(CCC#N)Cc1ccc(CN(Cc2ncc[nH]2)Cc2nccn2C)cc1 [Compound No. 33, 3-[(4-dipropylamino-butyl)-(4-{[(1H-imidazol-2-ylmethyl)-(1-methyl-1H-imidazol-2-ylmethyl)-amino]-methyl}-benzyl)-amino]-propionitrile] | 0/3 | 85.2 | 3 |
| CCCN(CCC)CCCCN(CCC(=O)OC)Cc1ccc(CN(Cc2ncc[nH]2)Cc2nccn2C)cc1 [Compound No. 34, 3-[(4-dipropylamino-butyl)-(4-{[(1H-imidazol-2-ylmethyl)-(1-methyl-1H-imidazol-2-ylmethyl)-amino]-methyl}-benzyl)-amino]-propionic acid methyl ester] | 0/3 | 85.5 | 3 |
| CCCN(CCC)CCCCNC(=S)Nc1ccc(CN(Cc2ncc[nH]2)Cc2nccn2C)cc1 [Compound No. 35, 1-(4-dipropylamino-butyl)-3-(4-{[(1H-imidazol-2-ylmethyl)-(1-methyl-1H-imidazol-2-ylmethyl)-amino]-methyl}-phenyl)-thiourea] | 0/3 | 86.3 | 7 |
| CCCN(CCC)CCCc1cccc(-c2ccc(CN(Cc3ncc[nH]3)Cc3nccn3C)cc2)n1 [Compound No. 36, {3-[6-(4-{[(1H-imidazol-2-ylmethyl)-(1-methyl-1H-imidazol-2-ylmethyl)-amino]-methyl}-phenyl)-pyridin-2-yl]-propyl}-dipropyl-amine] | 0/3 | 58 | 656 |
| CCCN(CCC)CCCCN(Cc1ccc(CN(Cc2ncc[nH]2)Cc2nccn2C)cc1)C(=O)C(F)(F)F [Compound No. 37, N-(4-dipropylamino-butyl)-2,2,2-trifluoro-N-(4-{[(1H-imidazol-2-ylmethyl)-(1-methyl-1H-imidazol-2-ylmethyl)-amino]-methyl}-benzyl)-acetamide] | 0/3 | 92.3 | 3 |
| CN(CCCCN1CCCCC1)Cc1ccc(CN(Cc2ncc[nH]2)Cc2nccn2C)cc1 [Compound No. 44, (4-{[(1H-imidazol-2-ylmethyl)-(1-methyl-1H-imidazol-2-ylmethyl)-amino]-methyl}-benzyl)-methyl-(4-piperidin-1-ylbutyl)amine] | 0/3 | 81.6 | 2 |
| CCCN(CCC)CCCc1nc2ccc(CN(Cc3ncc[nH]3)Cc3nccn3C)cc2n1CCC [Compound No. 46, [3-(6-{[(1H-imidazol-2-ylmethyl)-(1-methyl-1H-imidazol-2-ylmethyl)-amino]-methyl}-1-propyl-1H-benzimidazol-2-yl)-propyl]-dipropyl-amine] | 0/3 | 74.6 | 17 |
| CCCN(CCC)CCCCc1nc2ccc(CN(Cc3ncc[nH]3)Cc3nccn3C)cc2n1C(C)C [Compound No. 47, [4-(6-{[(1H-imidazol-2-ylmethyl)-(1-methyl-1H-imidazol-2-ylmethyl)-amino]-methyl}-1-isopropyl-1H-benzimidazol-2-yl)-butyl]-dipropyl-amine] | 0/3 | 86.2 | 2 |
| CCCN(CCC)CCCCN(Cc1ccc(CN(Cc2ncc[nH]2)C2CCCc3cccnc32)cc1)S(C)(=O)=O (stereo not drawn) [Compound No. 50, N-(4-dipropylamino-butyl)-N-(4-{[(1H-imidazol-2-ylmethyl)-(5,6,7,8-tetrahydro-quinolin-8-yl)-amino]-methyl}-benzyl)-methanesulfonamide] | 0/3 | 53.4 | 401 |
| CCCN(CCC)CCCCN(CCC(=O)O)Cc1ccc(CN(Cc2ncc[nH]2)Cc2nccn2C)cc1 [Compound No. 51, 3-[(4-dipropylamino-butyl)-(4-{[(1H-imidazol-2-ylmethyl)-(1-methyl-1H-imidazol-2-ylmethyl)-amino]-methyl}-benzyl)-amino]-propionic acid] | 0/3 | 85.8 | 2 |
| CCCN(CCC)CCCCN(CC#N)Cc1ccc(CN(Cc2ncc[nH]2)Cc2nccn2C)cc1 [Compound No. 82, [(4-dipropylamino-butyl)-(4-[[(1H-imidazol-2-ylmethyl)-(1-methyl-1H-imidazol-2-ylmethyl)-amino]-methyl]-benzyl)-amino]-acetonitrile] | 0/3 | 82.3 | 3 |
| CCCN(CCC)CCCCN(CC(=O)OC)Cc1ccc(CN(Cc2ncc[nH]2)Cc2nccn2C)cc1 [Compound No. 83, [(4-dipropylamino-butyl)-(4-[[(1H-imidazol-2-ylmethyl)-(1-methyl-1H-imidazol-2-ylmethyl)-amino]-methyl]-benzyl)-amino]-acetic acid methyl ester] | 0/3 | 79.7 | 3 |
| CCCN(CCC)CCCCN(CC(=O)OC)Cc1ccc(CN(Cc2ncc[nH]2)Cc2ncc[nH]2)cc1 [Compound No. 87, [(4-[[bis-(1H-imidazol-2-ylmethyl)-amino]-methyl]-benzyl)-(4-dipropylamino-butyl)-amino]-acetic acid methyl ester] | 0/3 | 82.1 | 3 |
| CCCN(CCC)CCCCN(CC(=O)O)Cc1ccc(CN(Cc2ncc[nH]2)Cc2ncc[nH]2)cc1 [Compound No. 88, [(4-[[bis-(1H-imidazol-2-ylmethyl)-amino]-methyl]-benzyl)-(4-dipropylamino-butyl)-amino]-acetic acid] | 0/3 | 85 | 2 |
| CCCN(CCC)CCCCN(CC(=O)OCC)Cc1ccc(CN(Cc2ncc[nH]2)Cc2ncc[nH]2)cc1 [Compound No. 97, [(4-[[bis-(1H-imidazol-2-ylmethyl)-amino]-methyl]-benzyl)-(4-dipropylamino-butyl)-amino]-acetic acid ethyl ester] | 0/3 | 85.6 | 1 |
| CCCN(CCC)CCCCN(CC(=O)O)Cc1ccc(CN(Cc2nccn2C)Cc2nccn2C)cc1 [Compound No. 100, [(4-[[bis-(1-methyl-1H-imidazol-2-ylmethyl)-amino]-methyl]-benzyl)-(4-dipropylamino-butyl)-amino]-acetic acid] | 0/3 | 79.2 | 2 |
